Data published in ChEMBL document CHEMBL6114961, “Novel isoxazole thiophene-containing compounds active against Mycobacterium tuberculosis” (Bioorg Med Chem Lett, 2025).
In brackets after ≈: the same amount, converted by molar mass.

Experiments:
HepG2 = assay: Cytotoxicity against human HepG2 cells measured after 3 days by Cell Titer-Glo Luminescent Cell Viability Assay; format: functional; conditions: HepG2, 72 h, time 3 day
[1] = system: Mycobacterium tuberculosis; assay: Antituberculosis activity against Mycobacterium tuberculosis H37Rv infected in human THP-1 cells assessed as reduction in bacterial growth pre-infected with bacteria for 24 hrs followed by compound addition and measured 3 days by luminescence based intramacrophage assay; format: functional, organism-based
[2] = system: Mycobacterium tuberculosis; assay: Antituberculosis activity against Mycobacterium tuberculosis H37Rv assessed as reduction in bacterial growth measured after 7 days using 7H9 broth by Alamar blue staining based analysis; format: functional; conditions: 168 h, time 7 day
[3] = Plasma concentration in male CD-1 mouse at 20 mg/kg, po measured for 14 hrs; format: ADME, organism-based
Cytochrome P450 2D6 = Cytochrome P450 2D6 (Homo sapiens, UniProt P10635); assay: Inhibition of CYP2D6 (unknown origin); format: ADME
Cytochrome P450 2C19 = Cytochrome P450 2C19 (Homo sapiens, UniProt P33261); assay: Inhibition of CYP2C19 (unknown origin); format: ADME
[4] = target: Voltage-gated inwardly rectifying potassium channel KCNH2 (Homo sapiens, UniProt Q12809); assay: Inhibition of human ERG; format: toxicity
[5] = system: Mycobacterium tuberculosis; assay: Bactericidal activity against non-replicating Mycobacterium tuberculosis Hu-Coates model assessed as reduction in CFU at 20 uM; format: functional
[6] = Selectivity index, ratio of CC50 for Cytotoxicity against human HepG2 cells to MIC for antituberculosis activity against Mycobacterium tuberculosis H37Rv assessed as reduction in bacterial growth; format: toxicity, cell-based, Hep G2; conditions: read-out: Selectivity Index
[7] = AUC (0 tot 24 hrs) in male CD-1 mouse at 20 mg/kg, po; format: ADME, organism-based; conditions: in vivo
[8] = Cmax in male CD-1 mouse at 20 mg/kg, po; format: ADME, organism-based; conditions: in vivo
[9] = Oral bioavailability in male CD-1 mouse at 20 mg/kg; format: ADME, organism-based; conditions: in vivo
[10] = Apparent permeability in human Caco-2 cells across apical to basolateral side; format: ADME, cell-based
[11] = system: Mycobacterium tuberculosis; assay: Bactericidal activity against non-replicating Mycobacterium tuberculosis Hu-Coates model assessed as reduction in CFU at 20 uM in presence of BPaL; format: functional
[12] = MRT (0 tot 24 hrs) in male CD-1 mouse at 20 mg/kg, po; format: ADME, organism-based; conditions: in vivo
Cytochrome P450 2C9 = Cytochrome P450 2C9 (Homo sapiens, UniProt P11712); assay: Inhibition of CYP2C9 (unknown origin); format: ADME
[13] = Half life in male CD-1 mouse at 20 mg/kg, po; format: ADME, organism-based; conditions: in vivo
Cytochrome P450 3A4 = Cytochrome P450 3A4 (Homo sapiens, UniProt P08684); assay: Inhibition of CYP3A4 (unknown origin); format: ADME
[14] = Plasma protein binding in mouse assessed as unbound fraction; format: ADME, cell-free
[15] = Metabolic stability in mouse liver microsomes assessed as intrinsic clearance; format: ADME, Microsome; conditions: read-out: CLH
[16] = Apparent permeability in human Caco-2 cells across basolateral side to apical side; format: ADME, cell-based
[17] = Tmax in male CD-1 mouse at 20 mg/kg, po; format: ADME, organism-based; conditions: in vivo
[18] = AUC (0 tot 24 hrs) in male CD-1 mouse at 3 mg/kg, iv; format: ADME, organism-based; conditions: in vivo
Cytochrome P450 1A2 = target: T1, Cytochrome P450 1A2 (Homo sapiens, UniProt P05177); assay: Inhibition of CYP1A2 (unknown origin); format: ADME
T1 sequence (P05177 whole entry): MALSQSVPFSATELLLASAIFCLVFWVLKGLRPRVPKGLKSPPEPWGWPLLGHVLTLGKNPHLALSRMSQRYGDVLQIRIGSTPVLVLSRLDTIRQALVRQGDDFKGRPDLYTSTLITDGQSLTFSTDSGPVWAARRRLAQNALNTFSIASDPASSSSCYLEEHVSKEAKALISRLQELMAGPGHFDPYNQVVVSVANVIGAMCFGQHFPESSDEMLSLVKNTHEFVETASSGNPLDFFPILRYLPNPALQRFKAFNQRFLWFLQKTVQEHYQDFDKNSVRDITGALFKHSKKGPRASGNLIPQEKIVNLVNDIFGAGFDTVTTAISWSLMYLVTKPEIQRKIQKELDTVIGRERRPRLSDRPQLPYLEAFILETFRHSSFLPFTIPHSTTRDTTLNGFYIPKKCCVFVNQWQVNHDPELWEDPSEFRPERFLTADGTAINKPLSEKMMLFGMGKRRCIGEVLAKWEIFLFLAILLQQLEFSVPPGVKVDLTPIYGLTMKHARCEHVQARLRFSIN

[19] = Plasma concentration in male CD-1 mouse at 20 mg/kg, po measured for 6 hrs; format: ADME, organism-based

Cytochrome P450 3A4, sequence (P08684 whole entry): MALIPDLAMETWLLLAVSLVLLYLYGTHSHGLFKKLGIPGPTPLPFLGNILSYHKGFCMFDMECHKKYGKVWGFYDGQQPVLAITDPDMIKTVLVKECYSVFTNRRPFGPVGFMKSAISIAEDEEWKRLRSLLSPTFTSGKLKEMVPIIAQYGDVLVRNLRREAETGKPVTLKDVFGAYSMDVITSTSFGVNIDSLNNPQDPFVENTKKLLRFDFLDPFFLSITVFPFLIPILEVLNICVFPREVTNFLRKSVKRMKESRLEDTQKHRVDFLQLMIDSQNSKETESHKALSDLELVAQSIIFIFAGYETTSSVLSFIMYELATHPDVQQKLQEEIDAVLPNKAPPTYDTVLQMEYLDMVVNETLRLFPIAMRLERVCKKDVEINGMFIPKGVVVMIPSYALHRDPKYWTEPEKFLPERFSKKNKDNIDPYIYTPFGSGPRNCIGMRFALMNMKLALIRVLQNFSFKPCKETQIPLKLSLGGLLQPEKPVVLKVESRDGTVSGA
Voltage-gated inwardly rectifying potassium channel KCNH2, sequence (Q12809 whole entry): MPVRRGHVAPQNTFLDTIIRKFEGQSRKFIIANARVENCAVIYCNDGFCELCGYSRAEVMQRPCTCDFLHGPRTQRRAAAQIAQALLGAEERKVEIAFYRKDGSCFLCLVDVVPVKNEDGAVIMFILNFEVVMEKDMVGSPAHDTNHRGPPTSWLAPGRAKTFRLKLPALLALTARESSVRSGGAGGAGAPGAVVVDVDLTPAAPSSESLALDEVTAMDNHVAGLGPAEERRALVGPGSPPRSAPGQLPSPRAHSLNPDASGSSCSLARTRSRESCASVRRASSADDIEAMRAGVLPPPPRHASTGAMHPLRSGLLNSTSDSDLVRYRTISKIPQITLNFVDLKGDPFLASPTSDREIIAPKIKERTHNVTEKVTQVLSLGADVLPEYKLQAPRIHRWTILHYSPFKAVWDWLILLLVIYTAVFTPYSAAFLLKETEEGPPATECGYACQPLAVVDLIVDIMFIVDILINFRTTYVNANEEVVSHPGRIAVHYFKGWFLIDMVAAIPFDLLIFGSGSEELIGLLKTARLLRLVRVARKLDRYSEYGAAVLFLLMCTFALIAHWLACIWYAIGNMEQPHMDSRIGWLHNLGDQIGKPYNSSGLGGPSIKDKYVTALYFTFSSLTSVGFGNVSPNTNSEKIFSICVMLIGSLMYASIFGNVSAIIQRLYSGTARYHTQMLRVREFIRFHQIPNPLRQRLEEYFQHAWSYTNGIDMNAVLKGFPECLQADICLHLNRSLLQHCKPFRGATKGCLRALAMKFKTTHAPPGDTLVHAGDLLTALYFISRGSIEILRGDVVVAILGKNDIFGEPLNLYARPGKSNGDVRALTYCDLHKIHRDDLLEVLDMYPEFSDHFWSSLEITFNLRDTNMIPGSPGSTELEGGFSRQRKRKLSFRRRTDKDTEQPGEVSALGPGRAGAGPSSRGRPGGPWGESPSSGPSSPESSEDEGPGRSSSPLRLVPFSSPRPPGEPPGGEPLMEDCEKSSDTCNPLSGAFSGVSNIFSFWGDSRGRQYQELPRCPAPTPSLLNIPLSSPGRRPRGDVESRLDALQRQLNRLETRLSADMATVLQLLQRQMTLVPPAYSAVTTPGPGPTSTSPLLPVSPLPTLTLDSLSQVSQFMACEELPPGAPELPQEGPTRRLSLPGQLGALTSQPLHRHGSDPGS
Cytochrome P450 2C9, sequence (P11712 whole entry): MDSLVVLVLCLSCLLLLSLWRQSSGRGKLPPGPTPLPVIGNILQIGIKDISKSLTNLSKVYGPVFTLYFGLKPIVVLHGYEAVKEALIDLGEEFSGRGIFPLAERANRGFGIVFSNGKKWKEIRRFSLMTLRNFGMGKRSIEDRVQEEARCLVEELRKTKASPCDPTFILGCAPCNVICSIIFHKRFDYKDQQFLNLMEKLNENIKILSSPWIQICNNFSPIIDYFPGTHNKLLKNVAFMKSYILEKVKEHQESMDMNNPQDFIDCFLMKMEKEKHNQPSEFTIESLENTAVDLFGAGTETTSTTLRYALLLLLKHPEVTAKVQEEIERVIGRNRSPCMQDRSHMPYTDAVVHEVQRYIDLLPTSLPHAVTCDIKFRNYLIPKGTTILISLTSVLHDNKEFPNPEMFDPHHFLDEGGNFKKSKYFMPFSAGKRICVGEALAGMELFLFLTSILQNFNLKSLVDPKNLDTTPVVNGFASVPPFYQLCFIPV
Cytochrome P450 2D6, sequence (P10635 whole entry): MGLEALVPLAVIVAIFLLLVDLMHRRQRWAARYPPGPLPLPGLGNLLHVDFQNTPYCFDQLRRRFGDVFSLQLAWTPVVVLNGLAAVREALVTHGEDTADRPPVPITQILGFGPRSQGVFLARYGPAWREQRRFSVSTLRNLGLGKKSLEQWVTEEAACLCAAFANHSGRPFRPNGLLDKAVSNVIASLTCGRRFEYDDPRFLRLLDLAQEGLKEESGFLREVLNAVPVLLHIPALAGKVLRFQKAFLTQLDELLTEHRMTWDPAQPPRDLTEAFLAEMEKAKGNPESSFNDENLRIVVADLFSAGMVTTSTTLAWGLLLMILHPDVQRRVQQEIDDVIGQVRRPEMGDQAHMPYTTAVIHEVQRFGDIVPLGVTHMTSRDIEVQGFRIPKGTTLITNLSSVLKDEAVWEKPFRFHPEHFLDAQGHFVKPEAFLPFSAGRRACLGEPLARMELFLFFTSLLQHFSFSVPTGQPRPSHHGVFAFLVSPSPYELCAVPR
Cytochrome P450 2C19, sequence (P33261 whole entry): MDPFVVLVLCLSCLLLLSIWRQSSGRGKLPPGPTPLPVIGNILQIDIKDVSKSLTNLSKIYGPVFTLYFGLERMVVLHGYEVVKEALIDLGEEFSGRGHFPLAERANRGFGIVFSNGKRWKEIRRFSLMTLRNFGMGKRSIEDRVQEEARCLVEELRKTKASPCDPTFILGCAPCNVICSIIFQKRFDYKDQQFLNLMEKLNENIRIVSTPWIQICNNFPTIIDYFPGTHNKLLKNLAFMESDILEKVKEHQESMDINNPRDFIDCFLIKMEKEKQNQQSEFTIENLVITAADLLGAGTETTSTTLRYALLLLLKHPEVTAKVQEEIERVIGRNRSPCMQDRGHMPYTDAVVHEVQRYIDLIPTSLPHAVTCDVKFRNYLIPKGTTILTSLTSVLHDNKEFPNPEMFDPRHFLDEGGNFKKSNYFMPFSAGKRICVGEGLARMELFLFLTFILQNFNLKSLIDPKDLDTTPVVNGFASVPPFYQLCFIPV

SMILES: O=S(=O)(Nc1cc(-c2ccsc2)no1)C1CCOC1 (stereo unspecified)
- CC50 (HepG2): > 40 µM
- EC50 [1]: > 25 µM

SMILES: O=S(=O)(Nc1cc(-c2ccsc2)no1)c1c(F)cccc1F
- CC50 (HepG2): > 40 µM
- EC50 [1]: 13.9 µM

SMILES: O=S(=O)(Nc1cc(-c2csc(C(F)(F)F)c2)no1)c1ccccc1F
- CC50 (HepG2): > 40 µM
- EC50 [1]: > 25 µM

SMILES: O=S(=O)(Nc1cc(-c2ccsc2)no1)c1cccc(F)c1
- CC50 (HepG2): > 40 µM
- EC50 [1]: 24.4 µM

SMILES: Cc1cc(-c2cc(NS(=O)(=O)c3ccccc3F)on2)c(C)s1
- CC50 (HepG2): > 40 µM
- EC50 [1]: 24.8 µM

SMILES: CN(c1cc(-c2ccsc2)no1)S(=O)(=O)c1ccccc1F
- CC50 (HepG2): > 40 µM
- EC50 [1]: 12.6 µM

SMILES: O=S(=O)(Nc1cc(-c2ccsc2)no1)c1ccc2c(c1)CC2
- CC50 (HepG2): > 40 µM
- EC50 [1]: 3.65 µM

SMILES: O=S(=O)(Nc1cc(-c2ccsc2)no1)c1ccccc1
- CC50 (HepG2): > 40 µM
- EC50 [1]: > 25 µM

SMILES: O=S(=O)(Nc1cc(-c2ccsc2)no1)c1cccc(F)c1F
- CC50 (HepG2): > 40 µM
- EC50 [1]: > 25 µM

SMILES: CC1(C)COCCC1S(=O)(=O)Nc1cc(-c2ccsc2)no1 (stereo unspecified)
- CC50 (HepG2): > 40 µM
- EC50 [1]: > 25 µM

SMILES: O=S(=O)(Nc1cc(-c2ccsc2)no1)c1ccccc1Cl
- CC50 (HepG2): > 40 µM
- EC50 [1]: 14.8 µM

SMILES: O=S(=O)(Nc1cc(-c2ccsc2)no1)c1cc(F)ccc1F
- CC50 (HepG2): > 40 µM
- EC50 [1]: > 25 µM

SMILES: O=S(=O)(Nc1cc(-c2ccsc2)no1)c1ccc(F)cc1F
- CC50 (HepG2): > 40 µM
- EC50 [1]: 24.9 µM

SMILES: O=S(=O)(Nc1cc(-c2ccsc2)no1)C1CCC(F)(F)CC1
- CC50 (HepG2): > 40 µM
- EC50 [1]: > 25 µM

SMILES: O=S(=O)(Nc1cc(-c2ccsc2)no1)c1ccc2c(c1)CCC2
- CC50 (HepG2): > 40 µM
- EC50 [1]: 24.9 µM

SMILES: O=S(=O)(CC1CCOCC1)Nc1cc(-c2ccsc2)no1
- CC50 (HepG2): > 40 µM
- EC50 [1]: > 25 µM

SMILES: O=S(=O)(Nc1noc(-c2ccsc2)n1)C1CCOCC1
- EC50 [1]: > 25 µM

SMILES: O=S(=O)(Nc1cc(-c2ccsc2)no1)C1CCCCC1
- CC50 (HepG2): > 40 µM
- EC50 [1]: 24.9 µM

SMILES: O=C(Nc1cc(-c2ccsc2)no1)c1ccccc1F
- CC50 (HepG2): > 40 µM
- EC50 [1]: 22.8 µM

SMILES: O=S(=O)(Nc1cc(-c2ccsc2)no1)c1cccnc1F
- CC50 (HepG2): > 40 µM
- EC50 [1]: > 25 µM

SMILES: O=S(=O)(Nc1cc(-c2cscn2)no1)C1CCOCC1
- CC50 (HepG2): > 40 µM
- EC50 [1]: > 25 µM

SMILES: O=S(=O)(Nc1cc(-c2ccoc2)no1)C1CCOCC1
- CC50 (HepG2): > 40 µM
- EC50 [1]: > 25 µM

SMILES: O=S(=O)(Nc1cc(-c2ccsn2)no1)C1CCOCC1
- CC50 (HepG2): > 25 µM
- EC50 [1]: > 25 µM

SMILES: O=S(=O)(Nc1cc(-c2ccsc2)no1)c1ccccc1F
- MIC90 [2]: 1.24 µM (≈ 0.402 µg/mL)
- concentration at 14 h [3]: 949 ng/mL
- IC50 (Cytochrome P450 2D6): > 50 µM
- IC50 (Cytochrome P450 2C19): 28.2 µM
- IC50 [4]: > 30 µM
- Activity [5]: 1.02 log10CFU
- selectivity ratio [6]: > 32
- CC50 (HepG2): > 40 µM
- AUC(0-t) at 24 h [7]: 4450 ng·h/mL
- Cmax [8]: 64200 ng/mL
- bioavailability [9]: 78%
- Papp A→B [10]: 3.6 ×10⁻⁶ cm/s
- Activity [11]: 3 log10CFU
- MRT last at 24 h [12]: 3.44 h
- IC50 (Cytochrome P450 2C9): 3.2 µM
- half-life [13]: 1.83 h
- IC50 (Cytochrome P450 3A4): > 50 µM
- fraction unbound [14]: 0.996
- microsomal CLint [15]: 5.6 µL/min/mg
- Papp B→A [16]: 27.3 ×10⁻⁶ cm/s
- EC50 [1]: 2.93 µM
- Tmax [17]: 0.67 h
- AUC [18]: 50981 ng·min/mL
- IC50 (Cytochrome P450 1A2): > 50 µM

SMILES: O=S(=O)(Nc1cc(-c2csc(Cl)c2)no1)C1CCOCC1
- CC50 (HepG2): > 40 µM
- EC50 [1]: > 25 µM

SMILES: O=S(=O)(Nc1cc(-c2ccsc2)no1)C1CCNCC1
- CC50 (HepG2): > 40 µM
- EC50 [1]: > 25 µM

SMILES: O=S(=O)(Nc1cc(-c2cccnc2)no1)c1ccccc1F
- CC50 (HepG2): > 40 µM
- EC50 [1]: 24.8 µM

SMILES: O=S(=O)(Nc1cc(-c2ccsc2)no1)c1c(F)cc(F)cc1F
- CC50 (HepG2): > 40 µM
- EC50 [1]: > 25 µM

SMILES: O=S(=O)(Nc1cc(-c2cccs2)no1)C1CCOCC1
- CC50 (HepG2): > 40 µM
- EC50 [1]: > 25 µM

SMILES: O=S(=O)(Nc1cc(-c2ccsc2)no1)C1CCOCC1
- concentration at 6 h [19]: 613 ng/mL
- CC50 (HepG2): > 40 µM
- AUC(0-t) at 24 h [7]: 713 ng·h/mL
- Cmax [8]: 24200 ng/mL
- bioavailability [9]: 58%
- MRT last at 24 h [12]: 1.7 h
- half-life [13]: 2.19 h
- fraction unbound [14]: 0.845
- microsomal CLint [15]: 0.2 µL/min/mg
- EC50 [1]: 1.96 µM
- Tmax [17]: 0.67 h
- AUC [18]: 11076 ng·min/mL
